Patent publication US8846698B2, “Pyrrolo[2,3-d]pyrimidine tropomysin-related kinase inhibitors” (Pfizer Limited, priority 2011, dated 2014)
Structures can show the parent of a compound that is named as a salt.

Target: TRKA (Homo sapiens (Human), UniProt P04629)
Assay: Isolated TRK enzyme assay (HTRF KinEASE-TK), TRKA
Format: biochemical
Details: read-out: Trka enzyme (IC50)

TRKA, sequence (P04629 441-796): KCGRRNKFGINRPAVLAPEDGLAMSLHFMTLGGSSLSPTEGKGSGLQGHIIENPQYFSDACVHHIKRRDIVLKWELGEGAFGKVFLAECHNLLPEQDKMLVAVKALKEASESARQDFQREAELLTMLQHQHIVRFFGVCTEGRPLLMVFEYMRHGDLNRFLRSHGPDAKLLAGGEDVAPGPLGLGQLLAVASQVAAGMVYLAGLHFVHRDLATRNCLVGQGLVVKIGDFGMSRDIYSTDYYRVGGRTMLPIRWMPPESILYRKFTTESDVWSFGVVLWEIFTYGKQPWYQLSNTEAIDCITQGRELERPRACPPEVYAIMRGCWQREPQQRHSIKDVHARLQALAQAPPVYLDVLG

Structure (SMILES)	IC50 [nM]
CC(C)n1cc(C(=O)c2cncc(NC(=O)Cn3ccc(C(F)(F)F)n3)c2)c2cnc(N)nc21 [Example 252, N-{5-[(2-amino-7-isopropyl-7H-pyrrolo[2,3-d]pyrimidin-5-yl)carbonyl]pyridin-3-yl}-2-[3-(trifluoromethyl)-1H-pyrazol-1-yl]acetamide]	5.18
CC(C)n1cc(C(=O)c2cncc(NC(=O)Cn3ccc(C4CC4)n3)c2)c2cnc(N)nc21 [Example 253, N-{5-[(2-amino-7-isopropyl-7H-pyrrolo[2,3-d]pyrimidin-5-yl)carbonyl]pyridin-3-yl}-2-(3-cyclopropyl-1H-pyrazol-1-yl)acetamide]	3.92
CC(C)n1cc(CC(=O)Nc2cncc(C(=O)c3cn(C(C)C)c4nc(N)ncc34)c2)c(C(F)(F)F)n1 [Example 254, N-{5-[(2-amino-7-isopropyl-7H-pyrrolo[2,3-d]pyrimidin-5-yl)carbonyl]pyridin-3-yl}-2-[1-isopropyl-3-(trifluoromethyl)-1H-pyrazol-4-yl]acetamide]	52.6
CC(C)n1cc(C(=O)c2cncc(NC(=O)Cc3ccc(C#N)cn3)c2)c2cnc(N)nc21 [Example 255, N-{5-[(2-amino-7-isopropyl-7H-pyrrolo[2,3-d]pyrimidin-5-yl)carbonyl]pyridin-3-yl}-2-(5-cyanopyridin-2-yl)acetamide]	42.7
CC(C)(CO)n1cc(C(=O)c2cncc(NC(=O)Cc3cccc(C(F)(F)F)c3)c2)c2cnc(N)nc21 [Example 256, N-(5-{[2-amino-7-(2-hydroxy-1,1-dimethylethyl)-7H-pyrrolo[2,3-d]pyrimidin-5-yl]carbonyl}pyridin-3-yl)-2-[3-(trifluoromethyl)phenyl]acetamide]	1.09
CC(C)(CO)n1cc(C(=O)c2cncc(NC(=O)Cc3ccc4ocnc4c3)c2)c2cnc(N)nc21 [Example 257, N-(5-{[2-amino-7-(2-hydroxy-1,1-dimethylethyl)-7H-pyrrolo[2,3-d]pyrimidin-5-yl]carbonyl}pyridin-3-yl)-2-(1,3-benzoxazol-5-yl)acetamide]	12.2
CC(C)(CO)n1cc(C(=O)c2cncc(NC(=O)Cc3cccc(S(C)(=O)=O)c3)c2)c2cnc(N)nc21 [Example 258, N-(5-{[2-amino-7-(2-hydroxy-1,1-dimethylethyl)-7H-pyrrolo[2,3-d]pyrimidin-5-yl]carbonyl}pyridin-3-yl)-2-[3-(methylsulfonyl)phenyl]acetamide]	11.8
CC(C)(CO)n1cc(C(=O)c2cncc(NC(=O)Cc3ccc(C#N)cc3)c2)c2cnc(N)nc21 [Example 259, N-(5-{[2-amino-7-(2-hydroxy-1,1-dimethylethyl)-7H-pyrrolo[2,3-d]pyrimidin-5-yl]carbonyl}pyridin-3-yl)-2-(4-cyanophenyl)acetamide]	8.62
CC(C)n1ncc(CC(=O)Nc2cncc(C(=O)c3cn(C(C)(C)CO)c4nc(N)ncc34)c2)c1C(F)(F)F [Example 260, N-(5-{[2-amino-7-(2-hydroxy-1,1-dimethylethyl)-7H-pyrrolo[2,3-d]pyrimidin-5-yl]carbonyl}pyridin-3-yl)-2-[1-isopropyl-5-(trifluoromethyl)-1H-pyrazol-4-yl]acetamide]	16.8
CC(CO)(CO)n1cc(C(=O)c2cncc(NC(=O)Cc3ccc(C#N)c(C(F)(F)F)c3)c2)c2cncnc21 [Example 261]	128
CC(CO)(CO)n1cc(C(=O)c2cncc(NC(=O)Cc3ccc(F)c(C(F)(F)F)c3)c2)c2cncnc21 [Example 263, N-(5-(7-(1,3-dihydroxy-2-methylpropan-2-yl)-7H-pyrrolo[2,3-d]pyrimidine-5-carbonyl)pyridin-3-yl)-2-(4-fluoro-3-(trifluoromethyl)phenyl)acetamide]	73.6
CC(CO)(CO)n1cc(C(=O)c2cncc(NC(=O)c3cccc(C(F)(F)F)c3)c2)c2cncnc21 [Example 264, N-(5-(7-(1,3-dihydroxy-2-methylpropan-2-yl)-7H-pyrrolo[2,3-d]pyrimidine-5-carbonyl)pyridin-3-yl)-3-(trifluoromethyl)benzamide]	84.8
CC(CO)(CO)n1cc(C(=O)c2cncc(NC(=O)c3ccc(C(F)(F)F)c(F)c3)c2)c2cncnc21 [Example 265, N-(5-(7-(1,3-dihydroxy-2-methylpropan-2-yl)-7H-pyrrolo[2,3-d]pyrimidine-5-carbonyl)pyridin-3-yl)-3-fluoro-4-(trifluoromethyl)benzamide]	69
CC(C)n1cc(C(=O)c2cncc(NC(=O)Cc3cccc(CN4CCC4)c3)c2)c2cncnc21 [Example 266, 2-[3-(azetidin-1-ylmethyl)phenyl]-N-{5-[(7-isopropyl-7H-pyrrolo[2,3-d]pyrimidin-5-yl)carbonyl]pyridin-3-yl}acetamide formate salt]	2950
CC(C)n1cc(C(=O)c2cncc(NC(=O)Cc3cccc(CN4CC(F)C4)c3)c2)c2cncnc21 [Example 267, 2-{3-[(3-fluoroazetidin-1-yl)methyl]phenyl}-N-{5-[(7-isopropyl-7H-pyrrolo[2,3-d]pyrimidin-5-yl)carbonyl]pyridin-3-yl}acetamide]	2120
CC(C)n1cc(C(=O)c2cncc(NC(=O)Cc3cccc(CN4CCOCC4)c3)c2)c2cncnc21 [Example 268, N-{5-[(7-isopropyl-7H-pyrrolo[2,3-d]pyrimidin-5-yl)carbonyl]pyridin-3-yl}-2-[3-(morpholin-4-ylmethyl)phenyl]acetamide formate salt]	579
O=C(Nc1cncc(C(=O)c2cn(C(CO)CO)c3ncncc23)c1)c1cccc(C(F)(F)F)c1 [Example 269, N-(5-(7-(1,3-dihydroxypropan-2-yl)-7H-pyrrolo[2,3-d]pyrimidine-5-carbonyl)pyridin-3-yl)-3-(trifluoromethyl)benzamide]	557
O=C(Cc1ccc(Cl)cc1)Nc1cncc(C(=O)c2cn(C(CO)CO)c3ncncc23)c1 [Example 270, 2-(4-chlorophenyl)-N-(5-(7-(1,3-dihydroxypropan-2-yl)-7H-pyrrolo[2,3-d]pyrimidine-5-carbonyl)pyridin-3-yl)acetamide]	343
O=C(Nc1cncc(C(=O)c2cn(C(CO)CO)c3ncncc23)c1)c1cccc(OC(F)(F)F)c1 [Example 271, N-(5-(7-(1,3-dihydroxypropan-2-yl)-7H-pyrrolo[2,3-d]pyrimidine-5-carbonyl)pyridin-3-yl)-3-(trifluoromethoxy)benzamide]	39
O=C(Cc1ccc2cccnc2c1)Nc1cncc(C(=O)c2cn(C(CO)CO)c3ncncc23)c1 [Example 272, N-(5-(7-(1,3-dihydroxypropan-2-yl)-7H-pyrrolo[2,3-d]pyrimidine-5-carbonyl)pyridin-3-yl)-2-(quinolin-7-yl)acetamide]	697
O=C(Cc1ccc(C(F)(F)F)cc1)Nc1cncc(C(=O)c2cn(C(CO)CO)c3ncncc23)c1 [Example 273, N-(5-(7-(1,3-dihydroxypropan-2-yl)-7H-pyrrolo[2,3-d]pyrimidine-5-carbonyl)pyridin-3-yl)-2-(4-(trifluoromethyl)phenyl)acetamide]	342
O=C(Cc1cccc(C(F)(F)F)c1)Nc1cncc(C(=O)c2cn(C(CO)CO)c3ncncc23)c1 [Example 274, N-(5-(7-(1,3-dihydroxypropan-2-yl)-7H-pyrrolo[2,3-d]pyrimidine-5-carbonyl)pyridin-3-yl)-2-(3-(trifluoromethyl)phenyl)acetamide]	38.6
Cc1ccc2ccc(CC(=O)Nc3cncc(C(=O)c4cn(C(CO)CO)c5ncncc45)c3)cc2n1 [Example 275, N-[5-({7-[2-hydroxy-1-(hydroxymethyl)ethyl]-7H-pyrrolo[2,3-d]pyrimidin-5-yl}carbonyl)pyridin-3-yl]-2-(2-methylquinolin-7-yl)acetamide]	5100
O=C(Cc1ccc(Cl)c(Cl)c1)Nc1cncc(C(=O)c2cn(C(CO)CO)c3ncncc23)c1 [Example 276, 2-(3,4-dichlorophenyl)-N-[5-({7-[2-hydroxy-1-(hydroxymethyl)ethyl]-7H-pyrrolo[2,3-d]pyrimidin-5-yl}carbonyl)pyridin-3-yl]acetamide]	295
O=C(Cc1ccc(C(F)(F)F)c(F)c1)Nc1cncc(C(=O)c2cn(C(CO)CO)c3ncncc23)c1 [Example 277, 2-[3-fluoro-4-(trifluoromethyl)phenyl]-N-[5-({7-[2-hydroxy-1-(hydroxymethyl)ethyl]-7H-pyrrolo[2,3-d]pyrimidin-5-yl}carbonyl)pyridin-3-yl]acetamide]	434
O=C(Cc1ccc(Cl)cc1Cl)Nc1cncc(C(=O)c2cn(C(CO)CO)c3ncncc23)c1 [Example 278, 2-(2,4-dichlorophenyl)-N-[5-({7-[2-hydroxy-1-(hydroxymethyl)ethyl]-7H-pyrrolo[2,3-d]pyrimidin-5-yl}carbonyl)pyridin-3-yl]acetamide]	54.3
O=C(Cc1cccc(OC(F)(F)F)c1)Nc1cncc(C(=O)c2cn(C(CO)CO)c3ncncc23)c1 [Example 279, N-[5-({7-[2-hydroxy-1-(hydroxymethyl)ethyl]-7H-pyrrolo[2,3-d]pyrimidin-5-yl}carbonyl)pyridin-3-yl]-2-[3-(trifluoromethoxy)phenyl]acetamide]	439
O=C(Cc1ccc(OC(F)(F)F)cc1)Nc1cncc(C(=O)c2cn(C(CO)CO)c3ncncc23)c1 [Example 280, N-[5-({7-[2-hydroxy-1-(hydroxymethyl)ethyl]-7H-pyrrolo[2,3-d]pyrimidin-5-yl}carbonyl)pyridin-3-yl]-2-[4-(trifluoromethoxy)phenyl]acetamide]	498
O=C(Nc1cncc(C(=O)c2cn(C(CO)CO)c3ncncc23)c1)c1cc(F)cc(C(F)(F)F)c1 [Example 281, 3-fluoro-N-[5-({7-[2-hydroxy-1-(hydroxymethyl)ethyl]-7H-pyrrolo[2,3-d]pyrimidin-5-yl}carbonyl)pyridin-3-yl]-5-(trifluoromethyl)benzamide]	161
O=C(Cc1ccc(Cl)cn1)Nc1cncc(C(=O)c2cn(C(CO)CO)c3ncncc23)c1 [Example 282, 2-(5-chloropyridin-2-yl)-N-[5-({7-[2-hydroxy-1-(hydroxymethyl)ethyl]-7H-pyrrolo[2,3-d]pyrimidin-5-yl}carbonyl)pyridin-3-yl]acetamide]	1010
